Columns and labels:
[1] = tested on: human lymphocyte cell proliferation; test: Human lymphocyte cell proliferation (FIG. 1 legend); format: cell-based; conditions: concentration of 100 μM
recombinant murine DHODH = molecular target: T1, recombinant murine DHODH (Mus musculus, UniProt O35435); test: Inhibition assay of DHODH activity (murine enzyme); format: biochemical; conditions: class symbols, key in nM
T1 construct: Prof; M. Löffler, Marburg, Germany (gift)
Protocol: (§1) The standard assay mixture contained 50 μM decyclo ubichinone, 100 μM dihydroorotate, 60 μM 2,6-dichloroindophenol, as well as 20 mU DHODH. The volume activity of the recombinant enzyme used was 30 U/ml. Measurements were conducted in 50 mM TrisHCl (150 mM KCl, 0.1% Triton X-100, pH 8.0) at 30° C. in a final volume of 1 ml. The components were mixed, and the reaction was started by adding dihydroorotate. The course of reaction was followed by spectrophotometrically measuring the decrease in absorption at 600 nm for […].
(§2) Inhibitory studies were conducted in a standard assay with additional variable amounts of inhibitor. […] These investigations were carried out with recombinant human as well as with recombinant murine DHODH provided by Prof. M. Löffler, Marburg, Germany [M. Löffler, Chem. Biol. Interact.

[2] = tested on: Human peripheral blood mononuclear cells (PBMC), T-cell proliferation; test: Proliferation assay of human T-cells (PHA-stimulated PBMC, BrdU ELISA); format: cell-based; conditions: PHA 20 μg/ml, 48 hours
Protocol: Human peripheral blood mononuclear cells (PBMC) were obtained from healthy volunteers and transferred to RPM11640 cell culture medium containing 10% dialyzed fetal calf serum. 80,000 cells per well were pipetted into a 96-well plate and phytohemagglutinin (PHA) was added in phosphate buffered saline to a final concentration of 20 μg/ml to stimulate T-cell proliferation. Vidofludimus was added in dimethyl sulfoxide (DMSO, final concentration: 0.1 Vol %) to final concentrations ranging from 20 nM to 50 μM. After incubation for 48 hours, cell proliferation was quantified using the “cell proliferation ELISA BrdU” (Roche) according to the manufacturer's instructions. […] (see FIG. 1).

[3] = Dynamic vapor sorption (water uptake); format: physicochemical
Source text: DVS (SMS): Surface Measurement Systems Ltd. DVS-1 water vapour sorption analyzer. The sample is placed on a platinum sample pan and allowed to equilibrate at a given relative humidity (r.h.), usually 50% r.h. Then, a pre-defined humidity program was started with a scanning rate of 5% r.h. change per hour. First step: from 50% r.h. to 0% r.h. (in case of a possibly hydrate as starting material 50 to 95% r.h.), second step: from 0% to 95% r.h. (in case of a possibly hydrate as starting material 95 to 0% r.h.)

[4] = Long-term stability, 18 months storage, HPLC; format: physicochemical
Protocol: HPLC: HPLC was performed with a Dionex UltiMate® 3000 liquid chromatograph comprising a solvent Rack, a vacuum degasser, a binary pump (mikro), a static mixer (500 μl), an autosampler, a 25 μl sample loop, a 100 μl syringe, a column oven and a DAD detector (semimicro measuring cell), which was set up for UV analysis. Data analysis was done with Chromeleon® 6.80 SP3. Compounds were separated at 30° C. on a Phenomenex Onyx™ Monolithic C18 50×2 mm column. The injection volume was 2 μl and the detection wavelength was 305 nm. As mobile phase, a gradient of 0.1% formic acid in HPLC grade water/acetonitrile was used, starting at a concentration of 5% acetonitrile. The starting concentration was held for 1 minute, then the gradient was ramped linearly to 95% acetonitrile over the course of 2 min, held for 0.7 min at 95% acetonitrile, after which it was returned to 5% acetonitrile within 0.1 min and kept constant for 0.7 min to re-equilibrate the column. The mobile phase flow rate was 1.5 ml/min.
The compounds were stored for 18 months at ambient conditions (20-25° C., 30-60% relative humidity) and subsequently analysed by HPLC for purity.

recombinant human DHODH = molecular target: T2, recombinant human DHODH (Homo sapiens, UniProt Q02127); test: Inhibition assay of DHODH activity (human enzyme); format: biochemical; conditions: recombinant human DHODH; class symbols, key in nM; read-out: human IC50-Value
T2 construct: Prof; M. Löffler, Marburg, Germany (gift)
Protocol: as §1, §2

DHODH = DHODH (Rattus norvegicus, UniProt Q63707); test: Inhibition assay of DHODH activity (column headed 'rate'); format: biochemical; conditions: class symbols, key in nM
Protocol: as §1, §2

T1 sequence (O35435 whole entry): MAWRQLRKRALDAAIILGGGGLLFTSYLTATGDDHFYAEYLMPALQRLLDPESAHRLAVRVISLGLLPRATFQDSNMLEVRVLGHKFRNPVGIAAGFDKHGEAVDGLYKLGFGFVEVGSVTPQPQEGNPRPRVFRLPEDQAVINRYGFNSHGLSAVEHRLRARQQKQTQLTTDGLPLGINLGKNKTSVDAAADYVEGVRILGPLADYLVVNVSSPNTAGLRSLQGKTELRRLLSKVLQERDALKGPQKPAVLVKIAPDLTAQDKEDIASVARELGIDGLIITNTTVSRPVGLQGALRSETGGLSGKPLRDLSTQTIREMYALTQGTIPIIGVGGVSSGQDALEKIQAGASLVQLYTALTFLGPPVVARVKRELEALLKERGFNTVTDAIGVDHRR
Sequence of DHODH (Q63707 whole entry): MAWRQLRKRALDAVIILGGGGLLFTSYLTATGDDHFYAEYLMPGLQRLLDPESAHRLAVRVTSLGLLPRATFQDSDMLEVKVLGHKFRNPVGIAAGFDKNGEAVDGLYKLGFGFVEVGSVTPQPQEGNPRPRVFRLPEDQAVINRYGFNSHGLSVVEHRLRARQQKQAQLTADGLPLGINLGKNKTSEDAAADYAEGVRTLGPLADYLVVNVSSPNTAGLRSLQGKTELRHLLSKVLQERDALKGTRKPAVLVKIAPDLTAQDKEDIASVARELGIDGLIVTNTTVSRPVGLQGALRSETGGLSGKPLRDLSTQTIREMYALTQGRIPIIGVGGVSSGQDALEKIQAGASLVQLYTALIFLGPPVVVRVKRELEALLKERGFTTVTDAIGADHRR
T2 sequence (Q02127 whole entry): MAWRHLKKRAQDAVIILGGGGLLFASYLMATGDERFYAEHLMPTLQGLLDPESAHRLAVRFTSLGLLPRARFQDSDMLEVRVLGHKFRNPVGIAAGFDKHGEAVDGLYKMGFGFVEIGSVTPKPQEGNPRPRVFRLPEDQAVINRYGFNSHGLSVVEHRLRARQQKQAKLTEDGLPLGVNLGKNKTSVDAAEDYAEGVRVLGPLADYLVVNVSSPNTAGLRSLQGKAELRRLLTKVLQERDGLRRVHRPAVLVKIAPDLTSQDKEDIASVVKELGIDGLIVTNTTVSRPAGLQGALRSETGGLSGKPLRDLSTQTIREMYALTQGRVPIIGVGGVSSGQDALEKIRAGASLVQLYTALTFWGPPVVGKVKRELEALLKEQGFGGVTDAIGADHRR

For `O=C(O)C1=C(C(=O)Nc2ccc(-c3ccccc3)cc2)CCC1` [2-(Biphenyl-4-ylcarbamoyl)-cyclopent-1-enecarboxylic acid], the “Reduction of human lymphocyte cell proliferation” value [1] was “Reduction of human lymphocyte cell proliferation”.
For `COc1cccc(-c2ccc(NC(=O)C3=C(C(=O)O)CCC3)c(F)c2)c1` [Compound 26, 2-((3-fluoro-3′-methoxy-[1,1′-biphenyl]-4-yl)carbamoyl)cyclopent-1-enecarboxylic acid], the IC50 (recombinant murine DHODH) was over 1500 nM, the IC50 [2] was 4100 nM and the “% water uptake at 95% r.h.” value ([3]; 95% r.h.) was 0.1%. The “% water uptake at 85% r.h.” value ([3]; about 85% r.h.) was 0.03%, the Peak area ([4]; HPLC after 18 months storage at ambient conditions (20-25° C., 30-60% relative humidity)) was over 99% and the “Occurrence of hydrolysis product in HPLC after 18 months storage” value ([4]; ambient conditions (20-25° C., 30-60% relative humidity), LOD for hydrolysis product: 0.1 μg/ml) was “Below LOD*”.
In the case of `COc1ccccc1-c1cc(F)c(NC(=O)C2=C(C(=O)O)COC2)c(F)c1` [Compound 47, 4-((3,5-difluoro-2′-methoxy-[1,1′-biphenyl]-4-yl)carbamoyl)-2,5-dihydrofuran-3-carboxylic acid], the IC50 (recombinant human DHODH) is reported as under 800 nM, the IC50 (recombinant murine DHODH) is reported as over 1500 nM and the IC50 (DHODH) is reported as under 800 nM.

Reference: US20120035175A1, “Novel salts as Anti-Inflammatory, Immunomodulatory and Anti-Proliferatory Agents” (4SC AG, priority 2010, published 2012)
